Results: PubChem BioAssay (NCI)
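96-well plates; 48 h exposure; 5 concentrations. Endpoints by linear interpolation between flanking doses. Not reached: highest tested concentration assigned. TGI: concentration producing complete growth inhibition.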

Key:
Assay in all cases: NCI tumour cell line growth inhibition, 48 h
[1] = tested on: BT-549 breast
[2] = tested on: DLD-1 colon
[3] = tested on: M19-MEL melanoma
[4] = tested on: MDA-MB-435
[5] = tested on: MDA-N
[6] = tested on: NCI/ADR-RES ovarian
[7] = tested on: P388 leukemia
[8] = tested on: P388/ADR leukemia
[9] = tested on: SN12K1 renal
[10] = tested on: SNB-78 CNS
[11] = tested on: RXF-631 renal

COc1cc2c(cc1OC)C(OC)N(C)c1c-2ccc2cc3c(cc12)OCO3 (centres undefined)
TGI [1]: > 75 µM | TGI [2]: 61.2 µM | TGI [3]: 4.08 µM | TGI [4]: > 75 µM | TGI [5]: > 75 µM | TGI [6]: > 55.3 µM | TGI [7]: 4.98 µM | TGI [8]: 13 µM | TGI [9]: 2.05 µM | TGI [10]: > 75 µM

O/N=C1/C(=C/c2ccc(Oc3ccccc3)cc2)CCCC1C(NO)c1ccc(Oc2ccccc2)cc1 (centres undefined)
TGI [2]: > 100 µM | TGI [3]: > 100 µM | TGI [11]: > 100 µM | TGI [10]: > 100 µM

CC1=C(C(=O)Nc2cc(=O)n(C)c(=O)n2C)C(c2ccc([N+](=O)[O-])cc2)C(C(=O)Nc2cc(=O)n(C)c(=O)n2C)=C(C)N1
TGI [2]: > 100 µM | TGI [3]: > 100 µM | TGI [11]: > 100 µM | TGI [10]: > 100 µM

O=C(Cc1nc2ccccc2s1)C(=O)Nc1cccc(Cl)c1
TGI [2]: > 100 µM | TGI [3]: > 100 µM | TGI [11]: > 100 µM | TGI [10]: > 100 µM

COc1cc(O)c2c(c1)C(=O)C=C(Cl)C2=O
TGI [2]: > 100 µM | TGI [3]: > 100 µM | TGI [11]: > 100 µM | TGI [10]: > 100 µM

O=C(O)/C(Cl)=C(\Cl)C(=O)NC1C2CC3CC(C2)CC1C3 (centres undefined)
TGI [2]: > 100 µM | TGI [3]: > 100 µM | TGI [11]: > 100 µM | TGI [10]: > 100 µM

O=C1c2ccccc2NC1(c1ccccc1)c1c(-c2ccccc2)[nH]c2ccccc12 (centres undefined)
TGI [2]: > 100 µM | TGI [3]: > 100 µM | TGI [11]: > 100 µM | TGI [10]: > 100 µM

C[C@@H](CN1CC(=O)NC(=O)C1)N1CC(=O)NC(=O)C1
TGI [1]: 783 µM | TGI [2]: 1090 µM | TGI [3]: 998 µM | TGI [4]: 1470 µM | TGI [5]: 680 µM | TGI [6]: 987 µM | TGI [7]: 2500 µM | TGI [8]: 2180 µM | TGI [9]: 541 µM | TGI [10]: 1480 µM
